Experiments:
Experiment in all cases: Postemergence foliar-applied herbicidal mixtures, weeds common to row crops
Type in all cases: in vivo
[1] = test system: DIGSA Digitaria sanguinalis (L.) Scop. (large crabgrass); conditions: Quizalofop-P-ethyl 3.56 g ae/ha
From the text: (§1) Evaluation of Postemergence Foliar-Applied Herbicidal Mixtures for Control of Weeds Common to Row Crops such as Corn and Soybeans. Seeds or nutlets of the desired test plant species were planted in a soil matrix prepared by mixing a loam or sandy loam soil (e.g., 28.6 percent silt, 18.8 percent clay, and 52.6 percent sand, with a pH of about 5.8 and an organic matter content of about 1.8 percent) and calcareous grit in an 80 to 20 ratio. The soil matrix was contained in plastic pots with a surface area of 84.6 cm^2 and a volume of 560 cubic centimeters (cm^3). When required to ensure good germination and healthy plants, a fungicide treatment and/or other chemical or physical treatment was applied. The plants were grown for 7-31 d in a greenhouse with an approximate 15 h photoperiod which was maintained at about 23-29° C. during the day and 22-28° C. during the night. Nutrients (Peters Excel® 15-5-15 5-Ca 2-Mg) and water were added on a regular basis and supplemental lighting was provided with overhead metal halide 1000-Watt lamps as necessary. The plants were employed for testing when they reached the first, second, or third true leaf stage.
(§2) Treatment requirements were calculated based upon the rates being tested, the concentration of active ingredient or acid equivalent in the formulation, and a 12 mL application volume at a rate of 187 L/ha.
(§3) Treatments consisted of the potassium (K^+) salt of 4-amino-3-chloro-6-(4-chloro-2-fluoro-3-methoxyphenyl)-pyridine-2-carboxylic acid (Cmpd 4) formulated as a soluble liquid (SL), the propargyl ester of 4-amino-3-chloro-6-(4-chloro-2-fluoro-3-methoxyphenyl)-pyridine-2-carboxylic acid (Cmpd 2) as technical grade material, or the benzyl ester of 4-amino-3-chloro-6-(4-chloro-2-fluoro-3-methoxyphenyl)-pyridine-2-carboxylic acid (Cmpd 3) as technical grade material and quizalofop-p-ethyl (Assure® II) alone and in combination. Forms of compound of formula (I) and quizalofop-P-ethyl were applied on an acid equivalent basis.
(§4) For treatments comprised of formulated compounds, measured amounts of compounds were placed individually in 25 mL glass vials and diluted in a volume of 1.5% (v/v) Agri-Dex® crop oil concentrated to obtain 6× stock solutions. […] Application solutions were prepared by adding an appropriate amount of each stock solution (typically 2 mL) and diluted to the appropriate final concentrations with the addition of an appropriate amount of an aqueous mixture of 1.5% (v/v) crop oil concentrate and water so that the final spray solutions contained 1.25+/−0.05% (v/v) crop oil concentrate.
(§5) For treatments comprised of formulated and technical compounds, weighed amounts of the technical materials were placed individually in 25 mL glass vials and dissolved in a volume of 97:3 v/v acetone/DMSO to obtain 6× stock solutions, and measured amounts of the formulated compounds were placed individually in 25 mL glass vials and diluted in a volume of 1.5% (v/v) crop oil concentrate or water to obtain 6× stock solutions. […] Application solutions were prepared by adding an appropriate amount of each stock solution (e.g., 2 mL) and diluted to the appropriate final concentrations with the addition of an appropriate amount of an aqueous mixture of 1.5% (v/v) crop oil concentrate and water so that the final spray solutions contained 1.25% (v/v) crop oil concentrate. When required, additional water and/or 97:3 v/v acetone/DMSO can be added to individual application solutions so that the final acetone and DMSO concentrations of the application solutions being compared are 16.2% and 0.5%, respectively.
(§6) All stock solutions and applications solutions were visually inspected for compound compatibility prior to application. Compound requirements are based upon a 12 mL application volume at a rate of 187 liters per hectare (L/ha). […]

[2] = test system: SORHA Sorghum halepense (L.) Pers. (Johnsongrass); conditions: Quizalofop-P-ethyl 7.125 g ae/ha
From the text: as §1, §2, §3, §4, §5, §6

[3] = test system: OEOBI Oenothera biennis (evening primrose)
From the text: as §1, §2, §3, §4, §5, §6

[4] = test system: AVEFA Avena fatua L. (wild oat)
From the text: as §1, §2, §3, §4, §5, §6

[5] = test system: LOLMU Lolium multiflorum Lam. (Italian ryegrass); conditions: Quizalofop-P-ethyl 3.56 g ae/ha
From the text: as §1, §2, §3, §4, §5, §6

[6] = Quizalofop-P-ethyl 7.125 g ae/ha
[7] = Quizalofop-P-ethyl 14.25 g ae/ha

## CCOC(=O)[C@@H](C)Oc1ccc(Oc2cnc3cc(Cl)ccc3n2)cc1 [Quizalofop-P-ethyl, quizalofop-P-ethyl]
[1]
  Percent (%) injury rated visually 14 DAA Obs: 20%
[2]
  Percent (%) injury rated visually 14 DAA Obs: 50%
[3]; [6]
  Percent (%) injury rated visually 14 DAA Obs: 0%
[3]; [7]
  Percent (%) injury rated visually 14 DAA Obs: 0%
[3]; Quizalofop-P-ethyl 28.5 g ae/ha
  Percent (%) injury rated visually 14 DAA Obs: 0%
[4]; Quizalofop-P-ethyl 3.56 g ae/ha
  Percent (%) injury rated visually 14 DAA Obs: 15%
[4]; [6]
  Percent (%) injury rated visually 14 DAA Obs: 15%
[4]; [7]
  Percent (%) injury rated visually 14 DAA Obs: 40%
[5]
  Percent (%) injury rated visually 14 DAA Obs: 0%
